“And” between values parts separate entries of the source, which are not always exact repeats. Equal entries are not always repeated.
Experiments:
CaMK2 alpha = CaMK2 alpha (Homo sapiens, UniProt Q9UQM7); test: Z'-LYTE kinase selectivity; format: biochemical
CHK1 = CHK1 (Homo sapiens, UniProt O14757); test: Z'-LYTE kinase selectivity; format: biochemical
c-MET = c-MET (Homo sapiens, UniProt P08581); test: Z'-LYTE kinase selectivity; format: biochemical
DYRK3 = DYRK3 (Homo sapiens, UniProt O43781); test: Z'-LYTE kinase selectivity; format: biochemical
EPHA2 = EPHA2 (Homo sapiens, UniProt P29317); test: Z'-LYTE kinase selectivity; format: biochemical
GSK3 beta = GSK3 beta (Homo sapiens, UniProt P49841); test: Z'-LYTE kinase selectivity; format: biochemical
INSR = INSR (Homo sapiens, UniProt P06213); test: Z'-LYTE kinase selectivity; format: biochemical
JAK2 = JAK2 (Homo sapiens, UniProt O60674); test: Z'-LYTE kinase selectivity; format: biochemical
JNK1 = JNK1 (Homo sapiens, UniProt P45983); test: Z'-LYTE kinase selectivity; format: biochemical
KDR = KDR (Homo sapiens, UniProt P35968); test: Z'-LYTE kinase selectivity; format: biochemical; details: read-out: IC50 KDR
LCK = LCK (Homo sapiens, UniProt P06239); test: Z'-LYTE kinase selectivity; format: biochemical
MAP4K4 = MAP4K4 (Homo sapiens, UniProt O95819); test: Z'-LYTE kinase selectivity; format: biochemical
MST4 = MST4 (Homo sapiens, UniProt Q9P289); test: Z'-LYTE kinase selectivity; format: biochemical
PKA = PKA (Homo sapiens, UniProt P17612); test: Z'-LYTE kinase selectivity; format: biochemical
SRC = SRC (Homo sapiens, UniProt P12931); test: Z'-LYTE kinase selectivity; format: biochemical
TAOK2 = TAOK2 (Homo sapiens, UniProt Q9UL54); test: Z'-LYTE kinase selectivity; format: biochemical
TNIK = TNIK (Homo sapiens, UniProt Q9UKE5); test: Z'-LYTE kinase selectivity; format: biochemical
[1] = test system: Ba/F3 (EML4-ALK^C1156Y) cells; test: Cell proliferation (CellTiter-Glo); format: cell-based; details: Mus musculus, BaF3
Procedure: (§1) Cell proliferation assay was performed using methods reported in the previous article. Cell proliferation was measured using the CellTiter-Glo® (CTG) Luminescent Cell Viability Assay (Promega, WI, USA). Cells were seeded in 96-well plates at 15,000 cells per well in detection medium containing 0.5% fetal bovine serum and placed in an incubator at 37℃ and 5% CO2 overnight. On the following day, iruplinalkib was serially diluted with DMSO, further diluted in assay medium, and added to the designated wells for serial dilution of iruplinalkib to the target gradient concentration.
(§2) Transfection was performed when cell confluent reached 70–90% in 12-well plates. Opti-MEM medium was used to dilute Lipofectamine 3000 reagent (ThermoFisher, MA, USA) and siRNA separately and mixed well. The mixture was added to the cells after incubation at room temperature for 15 min, then at 37℃ for 2–4 days.

[2] = test system: Ba/F3 (EML4-ALK^WT) cells; test: Cell proliferation (CellTiter-Glo); format: cell-based; details: Mus musculus, BaF3
Procedure: as §1, §2

[3] = test system: Ba/F3 (SLC34A2-ROS1) cells; test: Cell proliferation (CellTiter-Glo); format: cell-based; details: Mus musculus, BaF3
Procedure: as §1

Ba/F3 cells = test: Cell proliferation (CellTiter-Glo); format: cell-based; details: Mus musculus, BaF3
Procedure: as §1

[4] = test system: HCC-78 (SLC34A2-ROS1) cells; test: Cell proliferation (CellTiter-Glo); format: cell-based; details: Homo sapiens, HCC78
Procedure: as §1

[5] = test system: Karpas299 (NPM-ALK) cells; test: Cell proliferation (CellTiter-Glo); format: cell-based
Procedure: as §1

[6] = test system: NCI-H1975 (EGFR^L858R/T790M) cells; test: Cell proliferation (CellTiter-Glo); format: cell-based; details: Homo sapiens, NCI-H1975
Procedure: as §1

[7] = test system: NIH-3T3 (CD74-ROS1) cells; test: Cell proliferation (CellTiter-Glo); format: cell-based; details: Mus musculus, NIH3T3
Procedure: as §1

[8] = test system: NCI-H3122 (EML4-ALK) xenograft; test: NCI-H3122 cell line-derived xenograft model (tumor volume, body weight); format: in vivo, BALB/c nude mice; details: for Tumor volume, individual animals: in mm³
Procedure: Female BALB/c nude mice (4–6 weeks old) were provided by Shanghai Sipple-Bikai Laboratory Animal Co., Ltd. and Beijing Vital River Laboratory Animal Technology Co., Ltd. The mice were housed in a specific pathogen-free environment under a 12 h light/dark cycle, and had free access to sterile animal feed and water.
PDX and CDX models were used for in vivo studies. Patient-derived tumors tissues were divided into about 30 mm^3 and transplanted into the right dorsal subcutis. Treatment began when the tumor size reached to 200 mm^3. The mice were randomly assignied into the corresponding dosing groups (9 mice in each group). Drugs were deliverd via daily oral for 4 weeks. Tumor size was measured periodically using a digital caliper (Cal Pro, Sylvac, Switzerland), and tumor volume was calculated as 0.5 × length × width^2. For more detailed information, please refer to Supplementary materials. All procedures and protocols of xenograft models were approved by the Institutional Animal Care and Use Committee of WuXi AppTec.
NCI-H3122 cells were re-suspended with 0.9% sodium chloride, and then 6×10^6 cells in 100 μL was inoculated subcutaneously into the right armpit of nude mice to prepare solid tumor models under sterile conditions. […] Groups were gavaged once daily with the base dose of drug for 21 days. The blank control group was given the same volume of vehicle (sterile water) injection according to the same protocol, with the dose volume of 100 μL/10 g.

[9] = 2.5mg/kg PO QD×21, day 0 after administration
[10] = 2.5mg/kg PO QD×21, day 3 after administration
[11] = 2.5mg/kg PO QD×21, day 6 after administration
[12] = 2.5mg/kg PO QD×21, day 9 after administration
[13] = 2.5mg/kg PO QD×21, day 13 after administration
[14] = 2.5mg/kg PO QD×21, day 16 after administration
[15] = 2.5mg/kg PO QD×21, day 20 after administration
[16] = 5mg/kg PO QD×21, day 0 after administration
[17] = 5mg/kg PO QD×21, day 3 after administration
[18] = 5mg/kg PO QD×21, day 6 after administration
[19] = 5mg/kg PO QD×21, day 9 after administration
[20] = 5mg/kg PO QD×21, day 13 after administration
[21] = 5mg/kg PO QD×21, day 16 after administration
[22] = 5mg/kg PO QD×21, day 20 after administration

TNIK, sequence (Q9UKE5 whole entry): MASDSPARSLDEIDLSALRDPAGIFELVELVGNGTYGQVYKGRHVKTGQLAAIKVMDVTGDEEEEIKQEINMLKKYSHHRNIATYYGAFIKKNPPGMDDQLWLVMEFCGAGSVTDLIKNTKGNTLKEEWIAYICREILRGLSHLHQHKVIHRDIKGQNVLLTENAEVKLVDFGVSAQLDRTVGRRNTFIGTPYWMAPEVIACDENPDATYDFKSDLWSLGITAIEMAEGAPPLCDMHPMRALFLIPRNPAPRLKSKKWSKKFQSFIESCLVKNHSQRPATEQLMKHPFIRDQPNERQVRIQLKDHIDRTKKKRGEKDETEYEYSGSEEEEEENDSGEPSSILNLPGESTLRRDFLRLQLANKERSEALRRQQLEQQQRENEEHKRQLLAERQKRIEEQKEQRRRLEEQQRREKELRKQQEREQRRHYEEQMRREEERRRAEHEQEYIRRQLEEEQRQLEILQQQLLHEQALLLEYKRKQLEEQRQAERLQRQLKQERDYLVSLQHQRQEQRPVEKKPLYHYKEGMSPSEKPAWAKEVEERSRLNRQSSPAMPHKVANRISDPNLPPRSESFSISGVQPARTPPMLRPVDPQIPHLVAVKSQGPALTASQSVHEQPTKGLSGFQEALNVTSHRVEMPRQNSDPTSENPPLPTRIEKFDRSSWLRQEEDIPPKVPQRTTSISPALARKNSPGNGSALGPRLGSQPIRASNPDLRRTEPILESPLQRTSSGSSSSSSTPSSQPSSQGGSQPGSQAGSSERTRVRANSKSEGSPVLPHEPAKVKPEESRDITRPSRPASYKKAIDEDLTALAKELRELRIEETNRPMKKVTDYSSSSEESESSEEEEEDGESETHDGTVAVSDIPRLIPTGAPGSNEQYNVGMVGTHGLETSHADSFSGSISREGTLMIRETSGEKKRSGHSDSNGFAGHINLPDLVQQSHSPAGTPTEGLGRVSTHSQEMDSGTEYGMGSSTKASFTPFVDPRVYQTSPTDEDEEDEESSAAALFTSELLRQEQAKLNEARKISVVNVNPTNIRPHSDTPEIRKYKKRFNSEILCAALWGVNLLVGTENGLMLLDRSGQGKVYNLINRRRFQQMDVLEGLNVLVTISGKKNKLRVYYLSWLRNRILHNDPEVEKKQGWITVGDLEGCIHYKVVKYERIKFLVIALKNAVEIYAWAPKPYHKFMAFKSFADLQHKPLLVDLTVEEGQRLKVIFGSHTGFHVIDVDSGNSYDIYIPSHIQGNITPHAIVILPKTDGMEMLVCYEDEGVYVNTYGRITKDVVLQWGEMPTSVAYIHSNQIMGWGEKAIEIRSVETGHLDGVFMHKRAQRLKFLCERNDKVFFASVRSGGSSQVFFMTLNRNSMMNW
EPHA2, sequence (P29317 24-976): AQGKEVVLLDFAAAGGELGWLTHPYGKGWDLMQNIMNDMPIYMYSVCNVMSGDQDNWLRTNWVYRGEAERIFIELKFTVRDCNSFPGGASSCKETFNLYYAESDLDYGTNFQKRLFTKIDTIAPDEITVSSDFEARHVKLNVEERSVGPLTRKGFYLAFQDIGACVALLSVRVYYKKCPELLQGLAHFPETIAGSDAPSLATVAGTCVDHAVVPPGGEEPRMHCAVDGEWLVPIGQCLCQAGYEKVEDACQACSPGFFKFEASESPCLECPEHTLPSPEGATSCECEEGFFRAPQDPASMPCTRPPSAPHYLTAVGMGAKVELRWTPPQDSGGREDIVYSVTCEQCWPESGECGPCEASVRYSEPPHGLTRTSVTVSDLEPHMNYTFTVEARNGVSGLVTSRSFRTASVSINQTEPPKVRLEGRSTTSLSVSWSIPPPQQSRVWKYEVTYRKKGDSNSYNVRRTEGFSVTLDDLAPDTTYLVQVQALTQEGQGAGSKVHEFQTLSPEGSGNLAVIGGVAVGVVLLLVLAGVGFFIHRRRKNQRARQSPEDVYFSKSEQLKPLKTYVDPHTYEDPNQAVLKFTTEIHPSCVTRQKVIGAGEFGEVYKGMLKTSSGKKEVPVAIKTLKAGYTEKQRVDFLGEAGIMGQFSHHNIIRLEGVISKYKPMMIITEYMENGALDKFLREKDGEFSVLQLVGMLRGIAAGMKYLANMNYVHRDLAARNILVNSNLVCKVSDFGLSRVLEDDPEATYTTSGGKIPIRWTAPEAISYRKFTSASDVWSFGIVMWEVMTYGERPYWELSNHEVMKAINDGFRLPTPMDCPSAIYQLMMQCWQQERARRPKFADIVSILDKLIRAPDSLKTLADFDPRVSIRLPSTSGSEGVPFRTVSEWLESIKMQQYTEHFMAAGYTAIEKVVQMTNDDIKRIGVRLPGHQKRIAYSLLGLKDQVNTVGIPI
GSK3 beta, sequence (P49841 whole entry): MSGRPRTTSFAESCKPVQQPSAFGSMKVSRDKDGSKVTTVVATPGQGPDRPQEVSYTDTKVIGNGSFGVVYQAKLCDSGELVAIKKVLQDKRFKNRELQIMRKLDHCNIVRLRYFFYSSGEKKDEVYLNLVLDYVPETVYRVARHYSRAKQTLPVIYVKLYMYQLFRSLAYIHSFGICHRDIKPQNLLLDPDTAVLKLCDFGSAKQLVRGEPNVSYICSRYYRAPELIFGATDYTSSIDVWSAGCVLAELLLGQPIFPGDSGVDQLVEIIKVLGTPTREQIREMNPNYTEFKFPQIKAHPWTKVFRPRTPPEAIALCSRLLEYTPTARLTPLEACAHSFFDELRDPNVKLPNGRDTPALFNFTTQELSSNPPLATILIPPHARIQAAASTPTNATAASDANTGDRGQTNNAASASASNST
INSR, sequence (P06213 28-1382): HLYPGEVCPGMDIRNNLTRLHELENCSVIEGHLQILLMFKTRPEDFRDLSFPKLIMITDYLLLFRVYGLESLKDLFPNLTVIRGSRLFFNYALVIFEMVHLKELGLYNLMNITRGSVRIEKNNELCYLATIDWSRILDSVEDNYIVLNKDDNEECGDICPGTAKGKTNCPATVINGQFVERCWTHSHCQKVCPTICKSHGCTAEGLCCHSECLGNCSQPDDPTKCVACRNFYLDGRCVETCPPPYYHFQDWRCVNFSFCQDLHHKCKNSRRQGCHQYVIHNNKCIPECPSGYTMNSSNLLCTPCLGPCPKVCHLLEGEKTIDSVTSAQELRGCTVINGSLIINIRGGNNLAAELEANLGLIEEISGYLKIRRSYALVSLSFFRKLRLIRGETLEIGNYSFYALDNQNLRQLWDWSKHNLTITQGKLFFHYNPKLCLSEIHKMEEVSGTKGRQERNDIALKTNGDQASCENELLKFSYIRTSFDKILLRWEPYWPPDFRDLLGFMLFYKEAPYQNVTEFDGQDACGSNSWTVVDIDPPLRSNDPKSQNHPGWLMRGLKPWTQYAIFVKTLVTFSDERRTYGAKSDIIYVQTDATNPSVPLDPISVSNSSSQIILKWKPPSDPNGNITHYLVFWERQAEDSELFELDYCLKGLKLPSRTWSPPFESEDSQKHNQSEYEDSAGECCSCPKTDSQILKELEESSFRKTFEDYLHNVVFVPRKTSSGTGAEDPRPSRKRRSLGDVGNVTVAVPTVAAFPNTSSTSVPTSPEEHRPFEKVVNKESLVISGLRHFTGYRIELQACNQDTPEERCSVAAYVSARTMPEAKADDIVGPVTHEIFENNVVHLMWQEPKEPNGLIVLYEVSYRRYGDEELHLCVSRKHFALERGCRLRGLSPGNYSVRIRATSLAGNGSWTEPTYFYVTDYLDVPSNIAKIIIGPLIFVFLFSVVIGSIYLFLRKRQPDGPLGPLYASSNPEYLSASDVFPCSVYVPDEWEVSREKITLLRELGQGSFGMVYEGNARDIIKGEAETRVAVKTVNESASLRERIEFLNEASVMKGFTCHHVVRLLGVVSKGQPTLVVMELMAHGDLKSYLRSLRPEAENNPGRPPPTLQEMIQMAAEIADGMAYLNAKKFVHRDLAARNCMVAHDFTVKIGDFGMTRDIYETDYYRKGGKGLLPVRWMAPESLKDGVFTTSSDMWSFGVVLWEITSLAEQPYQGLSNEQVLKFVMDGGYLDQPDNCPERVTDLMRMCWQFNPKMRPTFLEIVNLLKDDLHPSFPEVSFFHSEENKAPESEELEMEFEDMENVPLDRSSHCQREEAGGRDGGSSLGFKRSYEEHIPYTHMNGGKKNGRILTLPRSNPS
SRC, sequence (P12931 whole entry): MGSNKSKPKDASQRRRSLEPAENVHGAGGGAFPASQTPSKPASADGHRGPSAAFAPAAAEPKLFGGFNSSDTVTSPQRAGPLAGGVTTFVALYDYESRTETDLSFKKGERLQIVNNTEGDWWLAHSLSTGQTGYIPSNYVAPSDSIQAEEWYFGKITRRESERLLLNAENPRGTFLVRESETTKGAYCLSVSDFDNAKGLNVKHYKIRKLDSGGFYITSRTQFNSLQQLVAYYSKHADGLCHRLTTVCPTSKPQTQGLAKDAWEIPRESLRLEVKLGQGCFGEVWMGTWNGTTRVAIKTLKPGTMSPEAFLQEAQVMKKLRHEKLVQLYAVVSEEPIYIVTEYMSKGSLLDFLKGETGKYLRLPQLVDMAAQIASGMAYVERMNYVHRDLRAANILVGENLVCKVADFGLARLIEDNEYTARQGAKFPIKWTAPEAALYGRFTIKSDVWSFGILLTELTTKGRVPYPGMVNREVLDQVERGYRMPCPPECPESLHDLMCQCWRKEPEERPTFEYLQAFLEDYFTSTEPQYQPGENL
MST4, sequence (Q9P289 whole entry): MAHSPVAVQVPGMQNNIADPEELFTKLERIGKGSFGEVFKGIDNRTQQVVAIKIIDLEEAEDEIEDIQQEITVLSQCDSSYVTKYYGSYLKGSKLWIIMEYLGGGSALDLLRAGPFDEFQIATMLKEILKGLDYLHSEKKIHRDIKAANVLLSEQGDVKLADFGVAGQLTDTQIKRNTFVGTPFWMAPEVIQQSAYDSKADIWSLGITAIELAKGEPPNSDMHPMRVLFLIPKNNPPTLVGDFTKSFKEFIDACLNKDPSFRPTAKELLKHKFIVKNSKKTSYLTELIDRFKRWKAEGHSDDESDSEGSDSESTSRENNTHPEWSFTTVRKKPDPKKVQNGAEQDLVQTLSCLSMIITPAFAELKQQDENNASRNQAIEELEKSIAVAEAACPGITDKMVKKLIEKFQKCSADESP

SMILES: COc1cc(N2CCC3(CCN(C)CC3)CC2)ccc1Nc1ncc(Cl)c(Nc2ccccc2P(C)(C)=O)n1 [Iruplinalkib]
- IC50 (CaMK2 alpha): 939 ± 99 nM
- IC50 (CHK1): 185 ± 41 nM
- IC50 (c-MET): 2940 ± 232 nM
- IC50 (DYRK3): 8010 ± 583 nM
- IC50 (EPHA2): > 10000 nM
- IC50 (GSK3 beta): > 10000 nM
- IC50 (INSR): 699 ± 261 nM
- IC50 (JAK2): 595 ± 12 nM
- IC50 (JNK1): 2040 ± 1170 nM
- IC50 (KDR): 260 ± 128 nM
- IC50 (LCK): 825 ± 243 nM
- IC50 (MAP4K4): 1840 ± 679 nM
- IC50 (MST4): 1400 ± 251 nM
- IC50 (PKA): > 10000 nM
- IC50 (SRC): 1680 ± 872 nM
- IC50 (TAOK2): 1500 ± 442 nM
- IC50 (TNIK): 3210 ± 1540 nM
- IC50 [1]: 9 nM
- IC50 [2]: 4 nM
- IC50 [3]: 4.05 nM
- IC50 (Ba/F3 cells): 2210 ± 94 nM
- IC50 [4]: 228 nM
- IC50 [5]: 4.5 ± 0.7 nM
- IC50 [6]: 508 ± 96 nM
- IC50 [7]: 342 nM
- Tumor volume Mean [8, 9]: 176 mm³
- Tumor volume, individual animals [8, 9]: 188 and 164 and 230 and 150 and 236 and 136 and 182 and 147
- Tumor volume Mean [8, 10]: 295 mm³
- Tumor volume, individual animals [8, 10]: 324 and 257 and 368 and 284 and 366 and 229 and 267 and 234
- Tumor volume Mean [8, 11]: 449 mm³
- Tumor volume, individual animals [8, 11]: 431 and 392 and 594 and 476 and 695 and 327 and 410 and 337 and 384
- Tumor volume Mean [8, 12]: 606 mm³
- Tumor volume, individual animals [8, 12]: 596 and 541 and 738 and 570 and 1128 and 398 and 498 and 499 and 486
- Tumor volume Mean [8, 13]: 694 mm³
- Tumor volume, individual animals [8, 13]: 630 and 635 and 849 and 718 and 1127 and 586 and 573 and 580 and 545
- Tumor volume Mean [8, 14]: 887 mm³
- Tumor volume, individual animals [8, 14]: 729 and 821 and 1141 and 926 and 1167 and 805 and 883 and 751 and 758.9
- Tumor volume Mean [8, 15]: 972 mm³
- Tumor volume, individual animals [8, 15]: 760 and 976 and 1087 and 1021 and 1125 and 811 and 1040 and 1032 and 895
- Tumor volume Mean [8, 16]: 177 mm³
- Tumor volume, individual animals [8, 16]: 233 and 239 and 173 and 121 and 155 and 235
- Tumor volume Mean [8, 17]: 260 mm³
- Tumor volume, individual animals [8, 17]: 306 and 299 and 256 and 223 and 292 and 296
- Tumor volume Mean [8, 18]: 371 mm³
- Tumor volume, individual animals [8, 18]: 537 and 487 and 339 and 249 and 357 and 438
- Tumor volume Mean [8, 19]: 430 mm³
- Tumor volume, individual animals [8, 19]: 567 and 541 and 407 and 332 and 403 and 534
- Tumor volume Mean [8, 20]: 531 mm³
- Tumor volume, individual animals [8, 20]: 666 and 699 and 523 and 388 and 515
- Tumor volume Mean [8, 21]: 624 mm³
- Tumor volume, individual animals [8, 21]: 718 and 880 and 646 and 506 and 603
- Tumor volume Mean [8, 22]: 727 mm³
- Tumor volume, individual animals [8, 22]: 811 and 875 and 702 and 717 and 714
- Tumor volume Mean ([8]; 10mg/kg PO QD×21, day 0 after administration): 174 mm³
- Tumor volume Mean ([8]; 10mg/kg PO QD×21, day 3 after administration): 190 mm³
- Tumor volume Mean ([8]; 10mg/kg PO QD×21, day 6 after administration): 204 mm³
- Tumor volume Mean ([8]; 10mg/kg PO QD×21, day 9 after administration): 240 mm³
- Tumor volume Mean ([8]; 10mg/kg PO QD×21, day 13 after administration): 243 mm³
- Tumor volume Mean ([8]; 10mg/kg PO QD×21, day 16 after administration): 218 mm³
- Tumor volume Mean ([8]; 10mg/kg PO QD×21, day 20 after administration): 233 mm³

Source: PMC10140010 (Investigational New Drugs, 2023)
